Like-named read-outs stand apart in the source and are kept apart here.
Tested on: HCV pseudoparticles (genotype 1a HCV E1 and E2 envelope, H77C isolate)
Test: microbe, parasite or virus in culture
Format: cell-based
Conditions: Hepatitis C virus
[1] = Huh-7, 48 h, read-out: Activity (EC50 class), HCV pseudoparticle infection of Huh7 cells, luciferase 2 days after infection, EC50 expressed as class A/B
[2] = Huh-7, read-out: Activity (EC50 class), HCV pseudoparticles (genotype 1a, H77C) in Huh7 cells, EC50 expressed as class A/B
[3] = Huh-7, 48 h, read-out: Activity (EC50 class), HCV pseudoparticles, Huh7 cells, luciferase 2 days after infection, average of duplicates
[4] = Huh-7, 48 h, HCV pseudoparticles (genotype 1a, H77C) in Huh7 cells, average of duplicate, luciferase 2 days after infection
[5] = Huh-7, 48 h, HCV pseudoparticle infection of Huh7 cells, luciferase 2 days after infection, average of duplicates

SMILES: COC(=O)[C@H](CCNC(=O)C(=O)Nc1ccc(-c2ccccc2)c(OC)c1)NC(=O)c1ccc(Nc2nc(NC3(c4ccc(Cl)cc4)CC3)nc(OCC(F)(F)F)n2)cc1 [Compound 1518]
- EC50 [1]: 0.01 to 10 nM

SMILES: CC(C)(CNC(=O)C(=O)Nc1ccc2[nH]ccc2c1)CNC(=O)c1ccc(Nc2nc(NC3(c4ccc(Cl)cc4)CC3)nc(OCC(F)(F)F)n2)cc1 [Compound 3338]
- EC50 [2]: 0.01 to 10 nM

SMILES: COC(=O)[C@H](CNC(=O)C(=O)Nc1cccc(OC(F)(F)F)c1)NC(=O)c1ccc(Nc2nc(NC3(c4ccc(Cl)cc4)CC3)nc(OCC(F)(F)F)n2)cc1 [Compound 3693]
- EC50 [3]: 0.01 to 10 nM

SMILES: O=C(NC[C@H](NC(=O)c1ccc(Nc2nc(NC3(c4ccc(Cl)cc4)CC3)nc(OCC(F)(F)F)n2)cc1)C(=O)O)C(=O)Nc1ccc(-c2ccno2)cc1 [Compound 3282]
- EC50 [2]: 0.01 to 10 nM

SMILES: COC(=O)[C@H](CCNC(=O)C(=O)Nc1ccc(OCC(F)(F)F)cc1)NC(=O)c1ccc(Nc2nc(NC3(c4ccc(Cl)cc4)CC3)nc(OCC(F)(F)F)n2)cc1 [Compound 3125]
- EC50 [2]: 0.01 to 10 nM

SMILES: Cc1ccc(NC(=O)C(=O)NC(C)(C)CNC(=O)c2ccc(Nc3nc(NC4(c5ccc(Cl)cc5)CC4)nc(OCC(F)(F)F)n3)cc2)cc1 [Compound 3417]
- EC50 [4]: 0.032 nM
- EC50 [2]: 0.01 to 10 nM

SMILES: CC(C)[C@@H]1CC[C@@H](C)C[C@H]1NC(=O)C(=O)NC[C@H](NC(=O)c1ccc(Nc2nc(NC3(c4ccc(Cl)cc4)CC3)nc(OCC(F)(F)F)n2)cc1)C(=O)O [Compound 1095]
- EC50 [1]: 0.01 to 10 nM

SMILES: CN(CCCN(C)C(=O)c1ccc(Nc2nc(NC3(c4ccc(Cl)cc4)CC3)nc(OCC(F)(F)F)n2)cc1)C(=O)C(=O)NC1CCCCC1 [Compound 3429]
- EC50 [2]: 0.01 to 10 nM

SMILES: CC(C)(C)C1CCC(NC(=O)C(=O)NC[C@H](NC(=O)c2ccc(Nc3nc(NC4(c5ccc(Cl)cc5)CC4)nc(OCC(F)(F)F)n3)cc2)C(=O)O)CC1 (stereo partly shown) [Compound 1090]
- EC50 [1]: 0.01 to 10 nM

SMILES: COC(=O)[C@H](CCNC(=O)C(=O)NCc1c(F)cccc1F)NC(=O)c1ccc(Nc2nc(NC3(c4ccc(Cl)cc4)CC3)nc(OCC(F)(F)F)n2)cc1 [Compound 1158]
- EC50 [1]: 0.01 to 10 nM

SMILES: CC1CC(=O)c2ccc(NC(=O)C(=O)NCC(C)(C)CNC(=O)c3ccc(Nc4nc(NC5(c6ccc(Cl)cc6)CC5)nc(OCC(F)(F)F)n4)cc3)cc2O1 (stereo not shown) [Compound 3336]
- EC50 [4]: 0.09 nM
- EC50 [2]: 0.01 to 10 nM

SMILES: CC(CNC(=O)C(=O)N1CCc2ccccc2C1)CNC(=O)c1ccc(Nc2nc(NC3(c4ccc(Cl)cc4)CC3)nc(OCC(F)(F)F)n2)cc1 (stereo not shown) [Compound 3471]
- EC50 [2]: 0.01 to 10 nM

SMILES: CC(C)(CNC(=O)C(=O)Nc1ccc(Oc2nn[nH]n2)cc1)CNC(=O)c1ccc(Nc2nc(NC3(c4ccc(Cl)cc4)CC3)nc(OCC(F)(F)F)n2)cc1 [Compound 1490]
- EC50 [1]: 0.01 to 10 nM

SMILES: C=Cc1cccc(NC(=O)C(=O)NC[C@H](NC(=O)c2ccc(Nc3nc(NC4(c5ccc(Cl)cc5)CC4)nc(OCC(F)(F)F)n3)cc2)C(=O)OC)c1 [Compound 3690]
- EC50 [3]: 0.01 to 10 nM

SMILES: CC(C)(CNC(=O)C(=O)Nc1nc2cc(O)ccc2s1)CNC(=O)c1ccc(Nc2nc(NC3(c4ccc(Cl)cc4)CC3)nc(OCC(F)(F)F)n2)cc1 [Compound 3801]
- EC50 [3]: 0.01 to 10 nM

SMILES: CC(C)(CNC(=O)C(=O)Nc1ccc(-c2ccc(F)cc2)cc1)CNC(=O)c1ccc(Nc2nc(NC3(c4ccc(Cl)cc4)CC3)nc(OCC(F)(F)F)n2)cc1 [Compound 1569]
- EC50 [1]: 0.01 to 10 nM

SMILES: COc1ccc(CNC(=O)C(=O)NCC[C@H](NC(=O)c2ccc(Nc3nc(NC4(c5ccc(Cl)cc5)CC4)nc(OCC(F)(F)F)n3)cc2)C(=O)O)cc1 [Compound 1186]
- EC50 [1]: 0.01 to 10 nM

SMILES: CC(C)(CNC(=O)C(=O)Nc1cc(F)cc(F)c1)CNC(=O)c1ccc(Nc2nc(NC3(c4ccc(Cl)cc4)CC3)nc(OCC(F)(F)F)n2)cc1 [Compound 1540]
- EC50 [1]: 0.01 to 10 nM

SMILES: CCC1(CC)CC1CNC(=O)C(=O)NC[C@H](NC(=O)c1ccc(Nc2nc(NC3(c4ccc(Cl)cc4)CC3)nc(OCC(F)(F)F)n2)cc1)C(=O)OC (stereo partly shown) [Compound 1459]
- EC50 [1]: 0.01 to 10 nM

SMILES: CC(C)(CNC(=O)C(=O)Nc1cccc(CCC(=O)O)c1)CNC(=O)c1ccc(Nc2nc(NC3(c4ccc(Cl)cc4)CC3)nc(OCC(F)(F)F)n2)cc1 [Compound 1482]
- EC50 [5]: 0.17 nM
- EC50 [1]: 0.01 to 10 nM

SMILES: Cc1ccc(CNC(=O)C(=O)NCC[C@H](NC(=O)c2ccc(Nc3nc(NC4(c5ccc(Cl)cc5)CC4)nc(OCC(F)(F)F)n3)cc2)C(=O)O)cc1F [Compound 1191]
- EC50 [5]: 0.17 nM
- EC50 [1]: 0.01 to 10 nM

SMILES: COC(=O)[C@@H](CCNC(=O)C(=O)NCC1(CN2CCOCC2)CC1)NC(=O)c1ccc(Nc2nc(NC3(c4ccc(Cl)cc4)CC3)nc(OCC(F)(F)F)n2)cc1 [Compound 1382]
- EC50 [1]: 0.01 to 10 nM

SMILES: COC(=O)[C@@H](CCNC(=O)C(=O)Nc1cccc(C(=O)Nc2ccccc2)c1)NC(=O)c1ccc(Nc2nc(NC3(c4ccc(Cl)cc4)CC3)nc(OCC(F)(F)F)n2)cc1 [Compound 3575]
- EC50 [2]: 0.01 to 10 nM

SMILES: CC(C)OC(=O)c1ccc(-c2ccc(NC(=O)C(=O)NCC(C)(C)CNC(=O)c3ccc(Nc4nc(NC5(c6ccc(Cl)cc6)CC5)nc(OCC(F)(F)F)n4)cc3)cc2)cc1 [Compound 1488]
- EC50 [1]: 0.01 to 10 nM

SMILES: O=C(NCC[C@H](NC(=O)c1ccc(Nc2nc(NC3(c4ccc(Cl)cc4)CC3)nc(OCC(F)(F)F)n2)cc1)C(=O)O)C(=O)NC1CCC(O)CC1 (stereo partly shown) [Compound 1118]
- EC50 [1]: 0.01 to 10 nM

SMILES: O=C(NCC[C@H](NC(=O)c1ccc(Nc2nc(NC3(c4ccc(Cl)cc4)CC3)nc(OCC(F)(F)F)n2)cc1)C(=O)O)C(=O)NCC1CC1c1cccc(F)c1 (stereo partly shown) [Compound 1448]
- EC50 [1]: 0.01 to 10 nM

SMILES: CNS(=O)(=O)c1cccc(NC(=O)C(=O)NC[C@H](NC(=O)c2ccc(Nc3nc(NC4(c5ccc(Cl)cc5)CC4)nc(OCC(F)(F)F)n3)cc2)C(=O)OC)c1 [Compound 3727]
- EC50 [3]: 0.01 to 10 nM

SMILES: N#Cc1ccc(-c2ccc(NC(=O)C(=O)NC/C(=N/C(=O)c3ccc(Nc4nc(NC5(c6ccc(Cl)cc6)CC5)nc(OCC(F)(F)F)n4)cc3)C(=O)O)cc2)cc1 [Compound 3170]
- EC50 [4]: 0.63 nM
- EC50 [2]: 0.01 to 10 nM

SMILES: COC(=O)[C@H](CCNC(=O)C(=O)Nc1ccc(Oc2ccccc2)cc1)NC(=O)c1ccc(Nc2nc(NC3(c4ccc(Cl)cc4)CC3)nc(OCC(F)(F)F)n2)cc1 [Compound 3113]
- EC50 [4]: 7.77 nM
- EC50 [2]: 0.01 to 10 nM

SMILES: Cc1ccc(NC(=O)C(=O)N(CCO)CCCNC(=O)c2ccc(Nc3nc(NC4(c5ccc(Cl)cc5)CC4)nc(OCC(F)(F)F)n3)cc2)cc1 [Compound 3501]
- EC50 [2]: 0.01 to 10 nM

SMILES: O=C(NCCc1ccc(F)cc1)C(=O)NCC[C@H](NC(=O)c1ccc(Nc2nc(NC3(c4ccc(Cl)cc4)CC3)nc(OCC(F)(F)F)n2)cc1)C(=O)O [Compound 1336]
- EC50 [5]: 0.88 nM
- EC50 [1]: 0.01 to 10 nM

SMILES: C[C@H]1[C@@H](NC(=O)C(=O)NCC[C@H](NC(=O)c2ccc(Nc3nc(NC4(c5ccc(Cl)cc5)CC4)nc(OCC(F)(F)F)n3)cc2)C(=O)O)C[C@H]2C[C@@H]1C2(C)C [Compound 1123]
- EC50 [1]: 0.01 to 10 nM

SMILES: Cc1ccc(NC(=O)C(=O)NCC(C)(C)CNC(=O)c2ccc(Nc3nc(NC4(c5ccc(Cl)cc5)CC4)nc(OCC(F)(F)F)n3)cc2)cc1C [Compound 3799]
- EC50 [3]: 0.01 to 10 nM

SMILES: COC(=O)[C@H](CCNC(=O)C(=O)NCCc1ccc(OC)cc1)NC(=O)c1ccc(Nc2nc(NC3(c4ccc(Cl)cc4)CC3)nc(OCC(F)(F)F)n2)cc1 [Compound 1310]
- EC50 [5]: 0.62 nM
- EC50 [1]: 0.01 to 10 nM

SMILES: O=C(NCCCCNC(=O)c1ccc(Nc2nc(NC3(c4ccc(Cl)cc4)CC3)nc(OCC(F)(F)F)n2)cc1)C(=O)N1CCc2ccccc2C1 [Compound 3402]
- EC50 [4]: 0.2 nM
- EC50 [2]: 0.01 to 10 nM

SMILES: CC(C)(CNC(=O)C(=O)Nc1ccc(CNC(N)=O)cc1)CNC(=O)c1ccc(Nc2nc(NC3(c4ccc(Cl)cc4)CC3)nc(OCC(F)(F)F)n2)cc1 [Compound 3671]
- EC50 [3]: 0.01 to 10 nM

SMILES: COC(=O)[C@H](CCNC(=O)C(=O)Nc1cc(F)cc(F)c1)NC(=O)c1ccc(Nc2nc(NC3(c4ccc(Cl)cc4)CC3)nc(OCC(F)(F)F)n2)cc1 [Compound 1506]
- EC50 [1]: 0.01 to 10 nM

SMILES: COC(=O)[C@H](CCNC(=O)C(=O)Nc1cc(F)c(F)cc1F)NC(=O)c1ccc(Nc2nc(NC3(c4ccc(Cl)cc4)CC3)nc(OCC(F)(F)F)n2)cc1 [Compound 1510]
- EC50 [1]: 0.01 to 10 nM

SMILES: COC(=O)[C@H](CNC(=O)C(=O)NCCn1cccn1)NC(=O)c1ccc(Nc2nc(NC3(c4ccc(Cl)cc4)CC3)nc(OCC(F)(F)F)n2)cc1 [Compound 1300]
- EC50 [1]: 0.01 to 10 nM

SMILES: O=C(Nc1ccc(C(=O)O)cc1)C(=O)NC1CCCC1CNC(=O)c1ccc(Nc2nc(NC3(c4ccc(Cl)cc4)CC3)nc(OCC(F)(F)F)n2)cc1 (stereo not shown) [Compound 1464]
- EC50 [5]: 0.48 nM
- EC50 [1]: 0.01 to 10 nM

SMILES: COC(=O)[C@H](CNC(=O)C(=O)Nc1ccc(-c2ccncc2)cc1)NC(=O)c1ccc(Nc2nc(NC3(c4ccc(Cl)cc4)CC3)nc(OCC(F)(F)F)n2)cc1 [Compound 3181]
- EC50 [2]: 0.01 to 10 nM

SMILES: O=C(NC[C@H](NC(=O)c1ccc(Nc2nc(NC3(c4ccc(Cl)cc4)CC3)nc(OCC(F)(F)F)n2)cc1)C(=O)O)C(=O)Nc1ccc(N2CCCC2)nc1 [Compound 3776]
- EC50 [3]: 0.01 to 10 nM

SMILES: Cn1ccnc1NC(=O)C(=O)NCC(C)(C)CNC(=O)c1ccc(Nc2nc(NC3(c4ccc(Cl)cc4)CC3)nc(OCC(F)(F)F)n2)cc1 [Compound 3379]
- EC50 [4]: 0.14 nM
- EC50 [2]: 0.01 to 10 nM

SMILES: O=C(NCC[C@H](NC(=O)c1ccc(Nc2nc(NC3(c4ccc(Cl)cc4)CC3)nc(OCC(F)(F)F)n2)cc1)C(=O)O)C(=O)Nc1ccncc1 [Compound 1278]
- EC50 [1]: 0.01 to 10 nM

SMILES: COC(=O)[C@@H](CCNC(=O)C(=O)NCC1(COc2ccccc2)CC1)NC(=O)c1ccc(Nc2nc(NC3(c4ccc(Cl)cc4)CC3)nc(OCC(F)(F)F)n2)cc1 [Compound 1387]
- EC50 [1]: 0.01 to 10 nM

SMILES: O=C(NCCCCNC(=O)c1ccc(Nc2nc(NC3(c4ccc(Cl)cc4)CC3)nc(OCC(F)(F)F)n2)cc1)C(=O)Nc1cccc(F)c1 [Compound 3390]
- EC50 [2]: 0.01 to 10 nM

SMILES: Cc1nnnn1-c1cc(Nc2nc(NC3(c4ccc(Cl)cc4)CC3)nc(OCC(F)(F)F)n2)ccc1C(=O)NCC(C)(C)CNC(=O)C(=O)Nc1ccc(F)cc1 [Compound 3552]
- EC50 [2]: 0.01 to 10 nM
